Measured values taken from patent US12678451B2, “Cannabinoid and omega fatty acid compositions and methods of using” (GreenWay Herbal Products, LLC, priority 2019, dated 2026).

Assays:
[1] = tested on: cytokines induced in mice by LPS; assay: Mouse LPS cytokine model, Example 6A Study 3, 1:1 CBD:CBDA in MCT oil; type: in vivo; details: 0.5 mg/kg
Description: (§1) A series of experiments using a mouse LPS cytokine animal model were performed. In the mouse LPS cytokine animal model, mice were injected with LPS, which induced the immune response shortly after the mice were injected with one of the potential anti-inflammatory compounds under evaluation (the “test compound”). The efficacy of the test compound was evaluated based on its ability to reduce expression levels of inflammatory cytokines that were elevated due to the immune response. The test compounds included a cannabinoid, an omega fatty acid, and a cannabinoid-omega fatty acid composition.
(§2) The mice were intraperitoneally injected with 0.1 mL of the test compound. One hour later, the mice were intraperitoneally injected with 0.1 mL of LPS in phosphate buffered saline (PBS). Four hours later, a heart puncture was performed and the blood was allowed to clot to generate serum. 0.1 mL of the serum was diluted 1:2 with PBS and stored at −80° C. The serum was then sent to a laboratory where a mouse cytokine array/chemokine array 31-plex (MD31) analysis was performed that analyzed the expression levels of the 32 cytokines/chemokines listed in Table 9, above.
(§3) For each considered test compound, the ability of the test compound to suppress each inflammatory cytokine was calculated by determining the percent suppression.
(§4) 32 female C57BL/6 mice that weighed approximately 20 g each were allowed to acclimate for one week with unlimited access to food and water. On the day of the study, the mice were weighed and split into eight groups of four mice each so that the average weight of each group was as close as possible to each other.
The 1:1 CBD:CBDA test compounds were dosed at 5 mg/kg or 0.1 mg per 20 g mouse, 1.67 mg/kg or 0.033 mg per 20 g mouse, 0.5 mg/kg or 0.01 mg per 20 g mouse, 0.167 mg/kg or 0.0033 mg per 20 g mouse and 0.05 mg/kg or 0.001 mg per 20 g mouse. The test compounds were prepared as 1 mg/mL, 0.33 mg/mL, 0.1 mg/mL, 0.033 mg/mL and 0.01 mg/mL solutions in MCT oil for a 0.1 mL injection. […] The LPS was dosed at 0.1 mg/kg or 0.002 mg per 20 g mouse. The LPS was prepared as a 0.02 mg/mL solution in PBS for a 0.1 mL injection.

[2] = tested on: cytokine levels in differentiated THP-1 cells treated with LPS; assay: THP-1 human cellular LPS cytokine assay, three independent experiments, total averaged suppression; details: Homo sapiens, THP-1, 4 h, read-out: % Cytokine Suppression (total averaged)
Description: Cells were seeded onto 24-, or 12-well plates and incubated for 48 hours to 72 hours to allow for differentiation. […] Supernatants were collected for quantification of human cytokine levels to assess the cytokine response. Cells remaining after the supernatant collection were tested to ensure they had at least 90% viability as determined by Alamar Blue assays. To conduct the Alamar Blue assays, supernatants were replaced with culture medium containing 1× Alamar Blue reagent and incubated overnight. Cell viability was assessed by measuring relative fluorescent units (RFU) on the SpectraMax M2e microplate reader (Molecular Devices Inc., Sunnyvale, Calif., USA) at Excitation 560 nm and Emission 590 nm. Controls included untreated cells with DMSO at the same concentration as the treated cells, LPS stimulated cells with DMSO at the same concentration as the treated cells and LPS stimulated cell with the various treatments. The levels of 42 of the most common human cytokines (Eve Technologies, Calgary, Canada Table 6) were determined by multi-plex analysis.
For this reason, the level of cytokine suppression was determined for each cytokine by each cannabinoid that was tested and the total averaged suppression for each cannabinoid was determined by dividing the total suppression by the number of the cytokines that were analyzed.

[3] = tested on: cytokines induced in mice by LPS; assay: Mouse LPS cytokine model, Example 6D, ALA, DHA and EPA omega-3 samples; type: in vivo; details: 12.5 mg total omega fatty acids per mouse, DXM 0.01 mg per mouse
Description: as §1, §2, §3
as §4, with “36 female C57BL/6” for “32 female C57BL/6”, “each were obtained and allowed to” for “each were allowed to”, “one week after arrival with unlimited” for “one week with unlimited”
All of the omega fatty acid samples that were tested were diluted so the dose was 12.5 mg of total omega fatty acids per mouse. […] The omega fatty acids samples tested included: (1) pollock oil, 456 mg/mL omega unsaturated fatty acids. The pollock oil contained a mixture of anti-inflammatory omega-3, omega-7 and omega-9 unsaturated fatty acids. […] (2) Flaxseed oil, 656 mg/mL anti-inflammatory omega unsaturated fatty acids. The flaxseed oil contained a mixture of anti-inflammatory omega-3 and omega-9 unsaturated fatty acids. The omega-3 and omega-9 unsaturated fatty acids constituted 77.6% and […], respectively, of the anti-inflammatory omega fatty acids contained in the flaxseed oil. A 12.5 mg dose contained 9.7 mg of ALA in the triglyceride form. (3) Mono 2:1 DHA:EPA, 744 mg/mL omega-3 unsaturated fatty acids that were primarily DHA or EPA. A 12.5 mg dose contained 7.81 mg of DHA and 3.91 mg of EPA. The omega-3 unsaturated fatty acids were in the free mono form. […] A 12.5 mg dose contained 3.85 mg of DHA and 7.69 mg of EPA. The omega-3 unsaturated fatty acids were in the free mono form. (5) Tri 2:1 DHA:EPA, 678.9 mg/mL omega-3 unsaturated fatty acids that were primarily DHA or EPA. A 12.5 mg dose contained 7.88 mg of DHA and 3.94 mg of EPA. The omega-3 unsaturated fatty acids were in the triglyceride form. (6) Tri 1:2 DHA:EPA, 678.9 mg/mL omega-3 unsaturated fatty acids that were primarily DHA or EPA. A 12.5 mg dose contained 3.60 mg of DHA and 7.19 mg of EPA. The omega-3 unsaturated fatty acids were in the triglyceride form.

[4] = tested on: cytokine levels in differentiated THP-1 cells treated with LPS; assay: THP-1 human cellular LPS cytokine assay, four independent experiments, per cytokine; type: cell-based; details: LPS 20 ng/mL

## C[C@@H]1C[C@H]2[C@@H]3CCC4=CC(=O)C=C[C@]4(C)[C@@]3(F)[C@@H](O)C[C@]2(C)[C@@]1(O)C(=O)CO [Dexamethasone, dexamethasone]
[1]
  AVERAGE SUPPRESSION: 34.65%
  Eotaxin suppression: 55.51%
  IFNγ suppression: 14.14%
  IL-1β suppression: 61.12%
  IL-2 suppression: −15.63%
  IL-6 suppression: 78.65%
  IL-7 suppression: 12.53%
  IL-9 suppression: 5.23%
  IL-10 suppression: 46.83%
  IL-12 p70 suppression: −46.46%
  IL-12β p40 suppression: 29.69%
  IL-13 suppression: 21.00%
  IL-17 suppression: 53.81%
  IP-10 suppression: 38.48%
  KC suppression: 86.96%
  LIF suppression: 35.14%
  MCP-1 suppression: 69.72%
  MIG suppression: 37.08%
  MIP-1α suppression: 48.38%
  MIP-1β suppression: 32.24%
  MIP-2 suppression: 41.28%
  RANTES suppression: 32.46%
  TNF-α suppression: 53.09%
  VEGF suppression: 66.07%
[2]
  inhibition at 2 µM: 51%
[3]
  AVERAGE SUPPRESSION: 43.34%
  Eotaxin suppression: 24.14%
  IL-6 suppression: 76.02%
  IL-10 suppression: 47.30%
  IP-10 suppression: 41.65%
  KC suppression: 56.41%
  MCP-1 suppression: 54.99%
  MIG suppression: 25.46%
  MIP-1α suppression: 55.47%
  MIP-1β suppression: 48.33%
  RANTES suppression: 39.58%
[3]; listed as DXM
  AVERAGE SUPPRESSION: 43.34%
[3]; listed as dexamethasone
  AVERAGE SUPPRESSION: 43.34%
[4]; 2 µM
  EGF suppression: 0.74%
  FGF-β suppression: −18.23%
  Flt-3L suppression: 57.45%
  IFNγ suppression: 56.19%
  IL-1α suppression: 77.5%
  IL-1β suppression: 67.84%
  IL-4 suppression: 56.32%
  IL-6 suppression: 90.56%
  IL-7 suppression: 64.36%
  IL-10 suppression: 74.07%
  IL-12 p70 suppression: 1.37%
  IL-15 suppression: 29.2%
  IL-18 suppression: −15.38%
  IP-10 suppression: 64.85%
  MCP-1 suppression: 83.18%
  MIP-1β suppression: 73.58%
  TNFα suppression: 45.33%
  TNFβ suppression: 72.69%
[4]
  Average cytokine suppression: 50.17%
